Values quoted from earlier work as cited in patent publication US20090306027A1 (priority 2006, published 2009).
Where a name gives a salt, the structure may show the parent alone.

| SMILES | solubility in organic solvents (organic solvents such as ethanol, ether and chloroform) | solubility in water | solubility in alcohol (alcohol) | solubility in ether (ether) |
| --- | --- | --- | --- | --- |
| O=[N+]([O-])O[C@H]1CO[C@H]2[C@@H]1OC[C@H]2O[N+](=O)[O-] [Diluted isosorbide dinitrate, 1,4,3,6-dianhydro-D-glucitol-2,5-dinitrate] | freely soluble | sparingly soluble | – | – |
| NNc1nncc2ccccc12 [Hydralazine hydrochloride, hydralazine hydrochloride] | – | soluble | slightly soluble | very slightly soluble |
